Tests used:
HeLa [1] = experiment: Effect on [3H]-Thymidine incorporation by HeLa cells measured as percent incorporation compared to control in the presence of drug at a concentration of 5 ug/mL; format: functional, Homo sapiens
P388 [2] = experiment: Activity against P388 lymphocytic leukemia in BDFR-1 mice measured as percent increase in lifespan (% ILS) relative to controls after intraperitoneal administration of 10 mg/kg; format: functional; conditions: Mus musculus, P388, ip
P388 [3] = experiment: Activity against P388 lymphocytic leukemia in BDFR-1 mice measured as median survival time (MST) after intraperitoneal administration of 40 mg/kg; format: functional, Mus musculus
P388 [4] = experiment: Activity against P388 lymphocytic leukemia in BDFR-1 mice measured as median survival time (MST) after intraperitoneal administration of 20 mg/kg; format: functional, Mus musculus
P388 [5] = experiment: Activity against P388 lymphocytic leukemia in BDFR-1 mice measured as percent increase in lifespan (% ILS) relative to controls after intraperitoneal administration of 5 mg/kg; format: functional; conditions: Mus musculus, P388, ip
HeLa [6] = experiment: Effect on [3H]-Thymidine incorporation by HeLa cells measured as percent incorporation compared to control 3 hr after washing at a concentration of 10 ug/mL; format: functional, Homo sapiens
HeLa [7] = experiment: Effect on [3H]thymidine incorporation by HeLa cells measured as percent incorporation compared to control 3 h after washing at a concentration of 5 ug/mL; format: functional, Homo sapiens
P388 [8] = experiment: Activity against P388 lymphocytic leukemia in BDFR-1 mice measured as percent increase in lifespan (% ILS) relative to controls after intraperitoneal administration of 20 mg/kg; format: functional; conditions: Mus musculus, P388, ip
HeLa [9] = experiment: Effect on [3H]-Thymidine incorporation by HeLa cells measured as percent incorporation compared to control in the presence of drug at a concentration of 10 ug/mL; format: functional, Homo sapiens
HeLa [10] = experiment: Effect on [3H]thymidine incorporation by HeLa cells measured as percent incorporation compared to control in the presence of drug at a concentration of 25 ug/mL; format: functional, Homo sapiens
P388 [11] = experiment: Activity against P388 lymphocytic leukemia in BDFR-1 mice measured as median survival time (MST) after intraperitoneal administration of 10 mg/kg; format: functional, Mus musculus
P388 [12] = experiment: Activity against P388 lymphocytic leukemia in BDFR-1 mice measured as median survival time (MST) after intraperitoneal administration of 5 mg/kg; format: functional, Mus musculus
HeLa [13] = experiment: Effect on [3H]-Thymidine incorporation by HeLa cells measured as percent incorporation compared to control 3 hr after washing at a concentration of 25 ug/mL; format: functional, Homo sapiens
P388 [14] = experiment: Activity against P388 lymphocytic leukemia in BDFR-1 mice measured as percent increase in lifespan (% ILS) relative to controls after intraperitoneal administration of 40 mg/kg; format: functional; conditions: Mus musculus, P388, ip
HeLa [15] = experiment: Effect on [3H]thymidine incorporation by HeLa cells measured as percent incorporation compared to control 3 h after washing at a concentration of 25 ug/mL; format: functional, Homo sapiens
HeLa [16] = experiment: Effect on [3H]-Thymidine incorporation by HeLa cells measured as percent incorporation compared to control 3 hr after washing at a concentration of 5 ug/mL; format: functional, Homo sapiens
HeLa [17] = experiment: Effect on [3H]thymidine incorporation by HeLa cells measured as percent incorporation compared to control in the presence of drug at a concentration of 5 ug/mL; format: functional, Homo sapiens
P388 [18] = experiment: Activity against P388 lymphocytic leukemia in BDFR-1 mice measured as percent increase in lifespan (% ILS) relative to controls after intraperitoneal administration of 80 mg/kg; format: functional; conditions: Mus musculus, P388, ip
P388 [19] = experiment: Activity against P388 lymphocytic leukemia in BDFR-1 mice measured as median survival time (MST) after intraperitoneal administration of 80 mg/kg; format: functional, Mus musculus
P388 [20] = experiment: Activity against P388 lymphocytic leukemia in BDFR-1 mice measured as percent increase in lifespan (% ILS) relative to controls after intraperitoneal administration of 2.5 mg/kg; format: functional; conditions: Mus musculus, P388, ip
P388 [21] = experiment: Activity against P388 lymphocytic leukemia in BDFR-1 mice measured as percent increase in lifespan (% ILS) relative to controls after intraperitoneal administration of 80 mg/kg; Toxic; format: functional, organism-based; parameters: dose 80 mg/kg; conditions: Mus musculus, at 80 mg/kg
P388 [22] = experiment: Activity against P388 lymphocytic leukemia in BDFR-1 mice measured as median survival time (MST) after intraperitoneal administration of 2.5 mg/kg; format: functional, Mus musculus

Structure (SMILES) | ILS at 10 mg/kg (P388 [2]) [%] | MST (P388 [3]) | MST (P388 [4]) | ILS at 5 mg/kg (P388 [5]) [%] | ILS at 20 mg/kg (P388 [8]) [%] | Incorporation (HeLa [10]) [%] | MST (P388 [11]) | MST (P388 [12]) | ILS at 40 mg/kg (P388 [14]) [%] | Incorporation (HeLa [15]) [%] | Incorporation (HeLa [16]) [%] | Incorporation (HeLa [17]) [%] | MST (P388 [19]) | further results
Cc1c2ccncc2c(C)c2c1[nH]c1ccccc12 [ELLIPTECINE] | 30 | 16 | 13 | 20 | 30 | 8 | 13 | 12 | 60 |  |  |  |  | Incorporation (HeLa [1]): 65%; Incorporation (HeLa [6]): 47%; Incorporation (HeLa [7]): 78%; Incorporation (HeLa [9]): 56%; Incorporation (HeLa [13]): 25%
Cc1c2cnccc2c(CO)c2[nH]c3ccccc3c12 | 45 | 16.5 | 16.5 | 30 | 65 | 22 | 14.5 | 13 | 65 | 52 | 88 | 67 | 18 | ILS at 80 mg/kg (P388 [18]): 80%
CNC(=O)OCc1c2ccncc2c(C)c2c1[nH]c1ccccc12 | 110 | 10 | 15 | 60 | 50 | 27 | 21 | 16 | 0 | 3 | 18 | 59 | 6 | ILS at 2.5 mg/kg (P388 [20]): 80%; ILS (P388 [21]): Toxic; MST (P388 [22]): 18

Source: ChEMBL document CHEMBL1123781, “Synthesis and biological properties of some 6H-pyrido[4,3-b]carbazoles” (1987)
